This note sets out measurements from US7521461B2, “Benzoic acid derivatives as modulators of PPAR alpha and gamma” (AstraZeneca AB, priority 2002, dated 2009).

One experiment has as its target T1, human PPAR alpha (Homo sapiens, UniProt Q07869).
T1 construct: expressed in transfected cells; host or cells: U2-OS (human osteogenic sarcoma), transient transfection by electroporation with a pSG5-based expression vector
T1 sequence (Q07869 239-466 limits assumed): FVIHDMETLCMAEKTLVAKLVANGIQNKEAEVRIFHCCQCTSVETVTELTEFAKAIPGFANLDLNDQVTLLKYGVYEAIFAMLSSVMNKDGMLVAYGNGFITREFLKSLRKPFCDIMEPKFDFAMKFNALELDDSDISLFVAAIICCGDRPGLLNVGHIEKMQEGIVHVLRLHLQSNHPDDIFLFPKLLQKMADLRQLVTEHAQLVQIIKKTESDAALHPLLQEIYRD
Briefly: GAL4-PPAR ligand binding domain luciferase reporter transactivation assay in transiently transfected U2-OS cells. Type of experiment: cell-based. To be noted: concentration giving 50% of the maximal activation obtained by the reference compound (ETYA), about 24 hours exposure. Here is the method:
(§1) Compounds were dissolved in DMSO to obtain 16 mM stock solutions. Before assays, stock solutions were further diluted in DMSO and culture media
(§2) U2-OS, (Osteogenic sarcoma, Human) was purchased from ATCC, USA. Cells were expanded and refrozen in batches from passage number six. Cells were cultured in Dulbecco's modified Eagle medium (DMEM) with 25 mM glucose, 2 mM glutamine or 4 mM L-alanyl-L-glutamine, 10% fetal calf serum, at 5% CO2. Phosphate buffered saline (PBS) without addition of calcium or magnesium was used. All cell culture reagents were from Gibco (USA) and 96-well cell culture plates were purchased from Wallach.
(§3) Standard recombinant DNA techniques were carried out as described by Ausubel (7). The Luciferase reporter vector, pGL5UAS (clone consists of five copies of the GAL4 DNA binding sequence, 5′-[…]-3′, cloned into the SacI/XhoI sites of pGL3-Promoter (Promega). The SacI/XhoI fragment carrying the UAS sites was constructed using annealed overlapping oligonucleotides.
(§4) Expression vectors used are based upon pSG5 (Stratagene). All vectors contain an EcoRI/NheI fragment encoding the DNA binding domain of GALA (encoding amino acid positions 1-145 of database accession number P04386) followed by an in-frame fusion to a fragment encoding the nuclear localisation sequence from T antigen of Polyoma Virus. […]
In general terms: Reporter assays use an easily measured gene product as a stand-in for the process of interest.

The target in a further experiment is T2, mouse PPAR gamma (Mus musculus, UniProt P37238).
T2 construct: expressed in transfected cells; host or cells: U2-OS (human osteogenic sarcoma), transient transfection by electroporation with a pSG5-based expression vector
T2 sequence (P37238 238-503 limits assumed): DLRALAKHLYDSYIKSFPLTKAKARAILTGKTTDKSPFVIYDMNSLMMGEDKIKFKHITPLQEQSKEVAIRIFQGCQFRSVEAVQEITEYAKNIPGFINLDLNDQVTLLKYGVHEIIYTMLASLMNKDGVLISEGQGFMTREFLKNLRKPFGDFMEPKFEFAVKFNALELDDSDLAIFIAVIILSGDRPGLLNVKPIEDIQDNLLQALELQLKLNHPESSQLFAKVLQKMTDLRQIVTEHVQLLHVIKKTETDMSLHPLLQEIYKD
The experiment is described as above. Type of experiment: cell-based. To be noted: concentration giving 50% of the maximal activation obtained by the reference compound (pioglitazone), about 24 hours exposure. Here is the method: as §1, §2, §3, §4

SMILES strings stand for the structures. pEC50: −log10 of the molar value.

As usually defined, the pEC50 is the EC50 on a negative log10 scale, so that one unit is a factor of ten. Lower therefore signals a large EC50. For `O=C(Cc1ccc(OCc2ccccc2C(=O)O)cc1)NCc1ccc(C(F)(F)F)cc1` [Example 2, 2-{[4-(2-Oxo-2-{[4-(trifluoromethyl)benzyl]amino}ethyl)phenoxy]methyl}benzoic acid], the pEC50 on human PPAR alpha is 5.53; at mouse PPAR gamma, 5.52.
